Patent US20250281474A1, “PHARMACEUTICAL COMPOSITION FOR TREATING COGNITIVE DECLINE OR FOR TREATING OVERWEIGHTNESS OR OBESITY” (University of the Ryukyus, priority 2021, published 2025)

Experiments:
[1] = Body weight monitoring of HFD-fed mice; assay type: in vivo, mouse
Protocol: Male C57BL/6J background and ob/ob mice were obtained from CLEA Japan Inc. and Japan SLC, respectively (3). The reason why male mice were selected is that it has been reported that male mice are susceptible to HFD, such as weight gain, metabolic changes, and disorder of learning and hippocampal synaptic plasticity. These animals were housed 3 to 4 per cage in a standard 12 hour dark-light cycle room at 25° C. in an environment with freely available food and water. All animal experiments were performed in accordance with the guidelines of the Animal Experiment Ethics Committee of the University of the Ryukyus. Time series changes in average food intake and average body weight were monitored in each condition.
Post-weaning (6 weeks) food intake and body weight of mice maintained on control diet (CD), high-fat diet (HFD), or HFD containing PER (Fycompa (trademark), Eisai, Japan) (5 mg/kg/day) was monitored up to 18 w (FIGS. 2, E and F). […]
Mice were then split into an HFD-fed group (n=5) and a PER-containing HFD-fed group (n=5) under the condition of the same feeding amount (refer to lower Panel of FIG. 25) and their body weights monitored.

HFD mice = assay: Golgi staining of hippocampus, HFD mice; assay type: in vivo, mouse; conditions: HFD mice with PER
Description: Coronal sections of mouse brains from Bregma −0.94 mm to Bregma −4.04 mm (5 mm wide, including the entire hippocampus from dorsal to ventral, medial to lateral) were fixed with 4% paraformaldehyde for 2 days, and then stained with the Golgi Cox staining system (FD Rapid GolgiStain™ Kit, MD 21041, USA). The impregnated tissues were cut into 100 μm sections and counterstained with crystal violet, and the total number of 15 μm spines on the apical dendrites of CA1 and DG and the percentage of morphologic spines (thin, stubby, mushroom) were examined using an Axio Observer Z1 (Carl Zeiss, Germany). Another set of paraformaldehyde-fixed 5 mm wide coronal sections of the brain, including the entire hippocampus, were processed using the passive CLARITY technique (PACT) (62) and examined through Lightsheet Z.1 (Carl Zeiss, Germany) using a 10× clear objective lens, and 3D images of Thy1-YFPH transgenic mice (the Jackson Laboratory, stock number: 003709, strain name: B6.Cg-Tg.(Thy1-YFP)16Jrs/J) (63, 64), HFD-fed mice, and whole hippocampus of the HFD-fed mice with PER treatment. were acquired respectively. Maximum intensity projection images were acquired along the Z dimension, time dimension, and channel dimension to create an output image with the pixel containing the maximum value for all images in the stack at a particular pixel position. […]

CP-AMPAR = assay: Ca2+ imaging of hippocampal brain slices, AMPA+CTZ application, ob/ob mice; assay type: cell-based, mouse
ob/ob mice = assay: Immunohistochemical analysis (MAP2, GluA1, GluA2, DCX), ob/ob mice; assay type: in vivo, mouse; conditions: ob/ob mice with PER
Description: Mouse brains were perfusion-fixed with 4% paraformaldehyde, embedded in paraffin, and cut into 4 micrometer thick sections to be used for immunohistochemical analysis of monoclonal antibodies against DCX (E-6 monoclonal, 1:50, Santa Cruz Biotechnology Inc, Dallas, USA), MAP2ab (AP-20 monoclonal, 1:100, SIGMA-ALDRICH, St. Louis, USA), GluA1 (AB1540 polyclonal, 1:100, EMD Millipore Corp., Burlington, USA), and GluA2 (AB 1768-1 polyclonal, 1:5, EMD Millipore Corp., Burlington, USA).
The immunostained region in each of the expression regions of MAP2, GluA1, and GluA2 was acquired using a ZVI format AxioVision (Carl Zeiss, Germany) microscope (objective lens 20×). Generation of data image processing with image segmentation was performed using machine learning with ZEN Intelliesis software. 1000 or more cells were examined in each group. One-way variance analysis was used for testing variance among the three groups excluding data of 3SD or higher. Then, the following number of samples was used.
Similar to the HFD mouse model, ob/ob mice had reduced dendritic arbors integrity as determined by MAP2 staining (FIG. 12). […] In addition, the maturation of the protrusions of DCX-positive cells progressed by treatment with PER for 12 weeks (FIG. 14).

[2] = test system: calcium-permeable AMPA receptor; assay: Ca2+ imaging of hippocampal slices of Alzheimer's disease model mice (NL, NLGF); assay type: cell-based, mouse; conditions: Alzheimer's disease model (NL and NLGF) mice fed CD
NMDAR = assay: Ca2+ imaging of hippocampal brain slices, NMDA+glycine application (NMDA reaction), HFD-fed mice; assay type: cell-based, mouse; conditions: slices of HFD-fed mice given PER 5 mg/kg/day orally, 50 μM NMDA + 10 μM glycine, N=5

Compound: N#Cc1ccccc1-c1cc(-c2ccccn2)cn(-c2ccccc2)c1=O [PER, 3-(2-cyanophenyl)-5-(2-pyridyl)-1-phenyl-1,2-dihydropyridine-2-one]
- body weight of HFD-fed mice ([1]; HFD containing PER 5 mg/kg/day from 6 weeks, effect started from 16 w compared to HFD): significant inhibition
- body weight under the condition of the same feeding amount ([1]; PER-containing HFD-fed group n=5 vs HFD-fed group n=5): significant body weight loss
- spine maturity in DG (HFD mice): immature spines became mature
- inhibitory effect on CP-AMPAR in EC, CA1, CA2, CA3, DG (CP-AMPAR; ob/ob mice slices, 100 μM, p<0.05 (FIG. 10-1A)): significant inhibitory effect
- Ca2+ permeability via CP-AMPAR in all hippocampal subregions (CP-AMPAR; ob/ob mice, PER administration, p<0.05): significant inactivation
- GluA1 expression in CA1 (immunoreactive regions) (ob/ob mice): restored
- ratio of GluA2/GluA1 (immunoreactive regions) (ob/ob mice): restored
- inhibition of NMDAR by the calcium-permeable AMPA receptor [2]: can be eliminated
- NMDA reaction CA1 (maximum value of NF525) (NMDAR; CA1): 1.20 ± 0.08 (N = 5)
- NMDA reaction CA2 (maximum value of NF525) (NMDAR; CA2): 1.20 ± 0.09 (N = 5)
- NMDA reaction CA3 (maximum value of NF525) (NMDAR; CA3): 1.12 ± 0.04 (N = 5)
- NMDA reaction DG (maximum value of NF525) (NMDAR; DG): 1.17 ± 0.04 (N = 5)
- NMDA reaction EC (maximum value of NF525) (NMDAR; EC): 1.16 ± 0.06 (N = 5)
